Patent US7329522B2, “Polyphosphate:AMP phosphotransferase” (Yamasa Corporation, priority 2002, dated 2008)

B1: galactokinase: E. coli galactokinase, partially purified enzyme solution (protein, UniProt P0A6T3 2-382, looked up)
Galactokinase: SLKEKTQSLFANAFGYPATHTIQAPGRVNLIGEHTDYNDGFVLPCAIDYQTVISCAPRDDRKVRVMAADYENQLDEFSLDAPIVAHENYQWANYVRGVVKHLQLRNNSFGGVDMVISGNVPQGAGLSSSASLEVAVGTVLQQLYHLPLDGAQIALNGQEAENQFVGCNCGIMDQLISALGKKDHALLIDCRSLGTKAVSMPKGVAVVIINSNFKRTLVGSEYNTRREQCETGARFFQQPALRDVTIEEFNAVAHELDPIVAKRVRHILTENARTVEAASALEQGDLKRMGELMAESHASMRDDFEITVPQIDTLVEIVKAVIGDKGGVRMTGGGFGGCIVALIPEELVPAVQQAVAEQYEAKTGIKETFYVCKPSQGAGQC
B2: polyphosphate:AMP phosphotransferase (protein, listed as Acinetobacter jobnsonii)
chain: MDTETIASAVLNEEQLSLDLIEAQYALMNTRDQSNAKSLVILVSGIELAGKGEAVKQLREWVDPRFLYVKADPPHLFNLKQPFWQPYTRFVPAEGQIMVWFGNWYGDLLATAMHASKPLDDTLFDEYVSNMRAFEQDLKNNNVDVLKVWFDLSWKSLQKRLDDMDPSEVHWHKLHGLDWRNKKQYDTLQKLRTRFTDDWQIIDGEDEDLRNHNFAQAILTALRHCPEHEKKAALKWQQAPIPDILTQFEVPQAEDANYKSELKKLTKQVADAMRCDDRKVVIAFEGMDAAGKGGAIKRIVKKLDPREYEIHTIAAPEKYELRRPYLWRFWSKLQSDDITIFDRTWYGRVLVERVEGFATEVEWQRAYAEINRFEKNLSSSQTVLIKFWLAIDKDEQAARFKARESTPHKRFKITEEDWRNRDKWDDYLKAAADMFAHTDTSYAPWYIISTNDKQQARIEVLRAILKQLKADRDTD

Assays:
[1] = biological target: T1, PAP (polyphosphate:AMP phosphotransferase) (Acinetobacter johnsonii, UniProt Q83XD3); test: Substrate specificity of PAP: NDP or dNDP produced from NMP or dNMP, measured by HPLC; format: biochemical; details: relative to phosphorylation of AMP = 100%; 5 mM NMP or dNMP, polyphosphate 10 mM, 100 mM MgCl2, pH 8.0, 37° C., 10 minutes
T1 construct: the PAP gene codes for the polypeptide (molecular weight: 55.8 kd) comprising 475 amino acids; made in house; host or cells: E. coli JM109 carrying plasmid pPAP2
Experimental: To 50 mM Tris HCl buffer solution (pH 8.0) containing 100 mM MgCl2, polyphosphate (10 mM calculated in terms of inorganic phosphate), and 5 mM of various NMP or dNMP was added PAP at various concentration, and the solution was incubate at 37° C. for 10 minutes. The reaction was terminated by heat treatment at 100° C. for 1 minute, and the solution after the reaction was subjected to HPLC to measure the amount of the NDP or the dNDP produced. The specific activity of each NMP or dNMP is shown in Table 1 as a relative value in relation to the specific activity of the PAP in the phosphorylation of the AMP, which is assumed 100%.

[2] = biological target: T1, PAP (polyphosphate:AMP phosphotransferase); test: Synthesis of NDP from NMP with PAP and polyphosphate, HPLC analysis; format: biochemical; details: 10 mM NMP, polyphosphate 30 mM, PAP 16 units/ml, 37° C., 30 minutes
[3] = system: PAP from Acinetobacter johnsonii; details: PAP obtained from Acinetobacter johnsonii, reported as AMP-specific; cited from earlier work
[4] = Adenylate kinase activity measurement (ADP from AMP and ATP, HPLC); format: biochemical; details: cell extract; 1 unit = 2 μmole ADP at 37° C. in 1 minute
Experimental: The unit of the adenylate kinase activity is the one measured and calculated by the procedure as described below. Sample enzyme is added the 50 mM Tris HCl buffer solution (pH 7.8) containing 10 mM magnesium chloride, 10 mM AMP, and 10 mM ATP, and the solution is incubated at 37° C. to promote the reaction, and the reaction is terminated by a 1 minute heating at 100° C. Amount of the ADP in the reaction solution is measured by using HPLC, and the activity of producing 2 μmole of ADP at 37° C. in 1 minute is designated 1 unit.
E. coli adenylate kinase was prepared by the procedure described in the document (Proc. Natl. Acad. Sci. USA, 97, 14168-14171 (2000)). However, the cell extract produced by ultrasonication was used for the enzyme solution, and the specific activity of the adenylate kinase in the enzyme solution was 12.5 units/mg protein.

[5] = Galactokinase activity measurement (galactose-1-phosphate produced, sugar analyzer); format: biochemical; details: partially purified; 1 unit = 1 μmole galactose-1-phosphate at 37° C. in 1 minute
Experimental: E. coli strain JM109 having the plasmid pDR540 containing E. coli galactokinase gene (Gene, 20, 231(1982), obtained from Pharmacia) was inoculated in 2xYT medium containing 100 μg/ml ampicillin, and the E. coli was cultivated at 37° C. with shaking. When the cell density reached 4×10^8/ml, IPTG was added to the culture medium to a final concentration of 1 mM, and the incubation was continued at 30° C. for another 5 hours. After completion of the cultivation, the cells were collected by centrifugation and suspended in 30 ml buffer solution (50 mM Tris HCl (pH 7.8), 1 mM EDTA). The cells were lyzed by ultrasonication, and bacterial residue was removed by further centrifugation. The solution collected was subjected to ion exchange chromatography using DEAE Toyopearl 650M (Toso) (eluent: 50 mM Tris HCl (pH 7.8), concentration gradient of 0 to 0.5M NaCl) for fractionation and partial purification of the galactokinase. The thus recovered fraction was used for the enzyme solution of galactokinase. […]
The unit of the glactokinase activity was the one measured and calculated by the procedure as described below. […] Amount of the galactose-1-phosphate in the reaction solution was measured by using a sugar analyzer (Dionex), and the activity of producing 1 μmole of galactose-1-phosphate at 37° C. in 1 minute was designated 1 unit.

[6] = PAP activity measurement (ADP produced from AMP and polyphosphate, HPLC); format: biochemical; details: partially purified by DEAE TOYOPEARL 650M; 1 unit = 1 μmole ADP at 37° C. in 1 minute
Experimental: The “unit” used herein is the unit measured under the following conditions, and 1 unit corresponds to the activity of producing 1 μmole of ADP at 37° C. in 1 minute.
Sample enzyme is added to 50 mM Tris HCl buffer solution (pH 7.8) containing 20 mM magnesium chloride, 10 mM AMP, and polyphosphate (30 mM calculated in terms of inorganic phosphate) and the reaction is allowed to proceed by incubating the temperature at 37° C., and the reaction is thereafter terminated by a heat treatment at 100° C. for 1 minute, and amount of ADP in the reaction solution is measured by high performance liquid chromatography (HPLC).
It is to be noted that this productivity corresponds to about 150 times the productivity of the Acinetobacter Johnsonii. PAP was partially purified by fractionating the extract by ion exchange chromatography using DEAE TOYOPEARL 650M (TOSO) (eluent: 50 mM Tris HCl (pH 7.8), concentration gradient of 0 to 0.5M NaCl), and the collected fraction was used for the enzyme sample. The specific activity of the PAP in the collected fraction was 80.5 units/mg protein.

[7] = pH stability of PAP (residual activity); format: physicochemical; details: pH in the range of 7 to 9; activity at pH 8 = 100%; 37° C., 10 minutes, 100 mM magnesium chloride
Experimental: PAP was incubated in either 50 mM maleate or 50 mM Tris HCl buffer solution of various pH at 37° C. for 10 minutes in the presence of 100 mM magnesium chloride to measure the residual activity. The residual activity was measured by allowing the reaction to take place at 37° C. for 10 minutes in the presence of 50 mM Tris buffer solution (pH 8.0), 100 mM magnesium chloride, 5 mM AMP, and polyphosphate (10 mM calculated in terms of inorganic phosphate), and measuring the resulting ADP by HPLC.

[8] = Thermal stability of PAP (residual activity); format: physicochemical; details: 10 minutes, pH 8.0, in the presence of the polyphosphate
Experimental: PAP was incubated for 10 minutes in 50 mM Tris HCl buffer solution (pH 8.0) containing 100 mM magnesium chloride in the presence or absence of polyphosphate (10 mM calculated in terms of inorganic phosphate) in the bath at various temperatures to measure the residual activity by the procedure as described above.

Optimal pH of PAP = format: biochemical; details: 37° C., 10 minutes, 5 mM AMP, polyphosphate 10 mM, 100 mM magnesium chloride
Experimental: The reaction was allowed to proceed in either 50 mM maleate or 50 mM Tris HCl buffer solution of various pH at 37° C. for 10 minutes in the presence of 100 mM magnesium chloride, polyphosphate (10 mM calculated in terms of inorganic phosphate), and 5 mM AMP to measure the amount of the ADP produced by HPLC.

Molecule	Specific activity (relative value) [1] [%]	NDP generated [2]	other results
Nc1ncnc2c1ncn2[C@@H]1O[C@H](COP(=O)(O)O)[C@@H](O)[C@H]1O [AMP, adenosine 5′-monophosphate]	100	6.76 mM ADP	
Nc1ccn([C@@H]2O[C@H](COP(=O)(O)O)[C@@H](O)[C@H]2O)c(=O)n1 [CMP]	0.09	0.98 mM CDP	phosphate-transfer by conventional PAP [3]: no phosphotransfer at all
Nc1nc2c(ncn2[C@@H]2O[C@H](COP(=O)(O)O)[C@@H](O)[C@H]2O)c(=O)[nH]1 [GMP]	10	7.16 mM GDP	phosphate-transfer by conventional PAP [3]: some phosphate-transfer
Cc1cn([C@H]2C[C@H](O)[C@@H](COP(=O)(O)O)O2)c(=O)[nH]c1=O [TMP]	0.012		
O=c1ccn([C@@H]2O[C@H](COP(=O)(O)O)[C@@H](O)[C@H]2O)c(=O)[nH]1 [UMP]	0.13	0.85 mM UDP	phosphate-transfer by conventional PAP [3]: no phosphotransfer at all
Nc1ncnc2c1ncn2[C@H]1C[C@H](O)[C@@H](COP(=O)(O)O)O1 [dAMP]	18		
Nc1ccn([C@H]2C[C@H](O)[C@@H](COP(=O)(O)O)O2)c(=O)n1 [dCMP]	0.008		
Nc1nc2c(ncn2[C@H]2C[C@H](O)[C@@H](COP(=O)(O)O)O2)c(=O)[nH]1 [dGMP]	2.6		
adenylate kinase: E. coli adenylate kinase, cell extract used as enzyme solution			specific activity of the adenylate kinase in the enzyme solution [4]: 12.5 units/mg protein
B1			specific activity of the galactokinase in the enzyme solution [5]: 6.5 units/mg protein
B2			specific activity of the PAP in the collected fraction [6]: 80.5 units/mg protein; enzymatic activity (residual) after incubation at various pH [7]: ≥ 80%; thermal stability: stable up to [8]: approximately 50 °C; optimal pH (Optimal pH of PAP): approximately 8.5
